From PMC5322872, “ALKBH7 Variant Related to Prostate Cancer Exhibits Altered Substrate Binding” (PLoS Computational Biology, 2017)

Molecular target: T1, ALKBH7 (Homo sapiens, UniProt Q9BT30)
T1 sequence (Q9BT30 17-215): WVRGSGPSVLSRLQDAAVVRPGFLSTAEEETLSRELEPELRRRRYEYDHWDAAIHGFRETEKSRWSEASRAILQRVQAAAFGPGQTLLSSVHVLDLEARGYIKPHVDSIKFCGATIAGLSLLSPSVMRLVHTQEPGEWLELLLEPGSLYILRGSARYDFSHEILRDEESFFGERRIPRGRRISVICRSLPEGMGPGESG
Experiment: anaerobic difference UV-Vis spectroscopy (MLCT transition at […] nm)
Assay type: binding
Conditions: 0.3 mM protein, 100 uM Fe(II), α-kg 2 mM in Fig 4 legend but 0.2 mM in Methods

SMILES: O=C(O)CCC(=O)C(=O)O [α-kg]
- anaerobic difference UV-Vis spectroscopy (MLCT transition at 510 nm): The spectrum of WT ALKBH7·Fe(II)·α-kg minus that of ALKBH7·α-kg revealed the typical weak MLCT transitions
